In US5723139A, “Skin care compositions containing a polycyclic triterpene carboxylic acid and a retinoid” (Chesebrough-Pond's USA Co., Division of Conopco, Inc., priority 1996, dated 1998):
Entries after “also recorded” stand apart in the source; their conditions may differ.

How the values were obtained:
[1] = tested on: human keratinocyte transglutaminase I (TGase I); assay: Transglutaminase I ELISA in cultured keratinocytes, normalized to DNA content (Examples 2 and 3 procedure); type: cell-based; details: for mean TGase/DNA × 10^5 ± s.d / effect on keratinocyte TG1 level / differentiation (in words) / activity at 1 µM / activity at 0.25 µM / activity at 0.0025 µM: 72 hours; for mean TGase/DNA × 10^5 ± s.d / activity at 1 µM / activity at 0.25 µM / activity at 0.0025 µM: n = 3; for activity at 1 µM / activity at 0.25 µM / activity at 0.0025 µM: Homo sapiens, Keratinocyte, % of control; for activity at 0.25 µM: Example 3, Table 3; for activity at 0.0025 µM: Example 2, Table 2; for effect on keratinocyte differentiation / transglutaminase I levels (in words, summary): summary of Examples 1-3
Experimental: Human keratinocytes, isolated from neonatal foreskin by trypsin treatment were grown in Dulbecco Modification Eagle (DME) Hams F12 (1:1) medium/10% fetal calf serum in the presence of irradiated 3T3 mouse fibroblasts for establishing dividing keratinocyte colonies. Cells were grown under the above condition until their second passage and kept frozen for future use. Frozen second passage keratinocytes were thawed and plated into the above medium and grown for five days before they were switched to a serum-free MCDB 153-based medium keratinocyte growth medium (KGM) from Clonetics Corporation, San Diego, Calif., containing 0.15 mM Ca, or keratinocyte serum-free media (KSFM) from GIBCO containing 0.09 mM Ca). On day 7, when the cells were 80-90% confluent, they were trypsinized and plated in the serum-free medium for the various experiments.
During the process of terminal differentiation in the epidermis, a 15 nm thick layer of protein, known as the cornified envelope (CE) is formed on the inner surface of the cell periphery. The CE is composed of numerous distinct proteins which have been cross-linked together by the formation of N^ε -(γ-glutamyl) lysine isodipeptide bonds catalyzed by the action of at least two different transglutaminases (TGases) expressed in the epidermis. TGase I is expressed in abundance in the differentiated layers of the epidermis, especially the granular layer, but is absent in the undifferentiated basal epidermis. Thus TGase I is a useful marker of epidermal keratinocyte differentiation with high TGase I levels indicating a more differentiated state. An ELISA based TGase I assay, using a TGase I antibody, was used to assess the state of differentiation of the cultured keratinocytes in the examples that follow.
Keratinocytes (cultured as described above) were plated in 96 well plates at a density of 3,000 cells per well in 200 μl of cell culture media. After incubation for four days, the media was changed to media containing test compounds (six replicates per test). The cells were cultured for a further 72 hours after which time the media was aspirated and the plates stored at -70° C. After the plates were removed from the freezer, the cells were further freezed fractured by freezing and thawing and then washed 3x with PBS. The cells were incubated for one hour at room temperature (R/T) with TBS/5% BSA buffer. Cells were then incubated with 100 μl of monoclonal anti-human transglutaminase (IgG) mouse antibody (primary antibody) obtained from Biomedical Technologies Inc. diluted 1:2000 in TBS/1% BSA buffer for two hours at 37° C., and then rinsed six times with wash buffer (TBS/1% BSA/0.05% Tween-20). Cells were next incubated with 100 μl of Fab fragment, peroxidase conjugated anti-mouse IgG antibody (secondary antibody) from Amersham diluted 1:4,000 in wash buffer for two hours at 37° C. and then rinsed three times with wash buffer and three times with PBS. Cells were incubated with substrate solution (4mg o-phenylene diamine and 3.3 μl 30% H2 O2 in 10 mL 0.1M citrate buffer, pH 5.0) for five minutes at R/T and in darkness (under aluminum foil). The reaction was stopped by the addition of 50 μl 4N H2SO4. The absorbance of samples was read at 492 nm in the plate reader. Out of the six replicates, four were treated with both antibodies, two were treated only with the secondary antibody (i.e., to determine the background binding of the enzyme conjugated antibody). Transglutaminase I levels were determined by subtracted background from the readings from each treatment and determining the mean s.d. for the replicates exposed to both antibodies.
The level of TGase-1 detected after treatment of the cells could be influenced by cell number, i.e., the greater the number of cells the greater the level of TGase-1 detected. The level of TGase-1 was normalized to DNA content of the cells in the same well thus eliminating variation due to differences in cell number. […]

[2] = tested on: human keratinocyte transglutaminase I (TGase I); assay: Transglutaminase I ELISA in cultured keratinocytes, normalized to DNA content (Example 1 procedure); type: cell-based; details: 2.5×10^-7 M, 2.5×10^-8 M and 2.5×10^-9 M, vs ethanol control
Experimental: Human keratinocytes, isolated from neonatal foreskin by trypsin treatment were grown in Dulbecco Modification Eagle (DME) Hams F12 (1:1) medium/10% fetal calf serum in the presence of irradiated 3T3 mouse fibroblasts for establishing dividing keratinocyte colonies. Cells were grown under the above condition until their second passage and kept frozen for future use. […] On day 7, when the cells were 80-90% confluent, they were trypsinized and plated in the serum-free medium for the various experiments.
During the process of terminal differentiation in the epidermis, a 15 nm thick layer of protein, known as the cornified envelope (CE) is formed on the inner surface of the cell periphery. […]
Keratinocytes (cultured as described above) were plated in 96 well plates at a density of 3,000 cells per well in 200 μl media. […] The absorbance of samples was read at 492 nm in the plate reader. […] TGase levels were determined by subtracting background from the readings from each treatment and determining mean±s.d. for the replicates exposed to both Ab.
The level of TGase-1 was normalized to DNA content of the cells in the same well thus eliminating variation due to differences in cell number. DNA quantitation is a particularly useful indicator of cell number, including keratinocyte cell number, because each cell has to all intents and purposes an identical genome and therefore an identical quantity of DNA. […]

skin keratinocytes = assay: Thymidine incorporation / proliferation of skin keratinocytes; type: cell-based, human; details: summary of Examples 1-3
[3] = Example 2, 2.5×10^-9 M retinoic acid or retinol, 10^-6 M glycyrrhizic acid
[4] = Example 3, 2.5×10^-7 M retinoic acid or retinol, 10^-6 M oleanolic acid

## CC1(C)[C@@H](O[C@H]2O[C@H](C(=O)O)[C@@H](O)[C@H](O)[C@H]2O[C@@H]2O[C@H](C(=O)O)[C@@H](O)[C@H](O)[C@H]2O)CC[C@]2(C)[C@H]3C(=O)C=C4[C@@H]5C[C@@](C)(C(=O)O)CC[C@]5(C)CC[C@@]4(C)[C@]3(C)CC[C@@H]12 [Glycyrrhizic acid]
[1]; 10^-6 M, Table 2
  mean TGase/DNA × 10^5 ± s.d: 11.98 ± 3.00 × 10^5
  activity at 1 µM: 99%
[1]; [3]
  effect on keratinocyte TG1 level / differentiation (in words): no inhibitory effect on the keratinocyte TG1 level

## CC1(C)CC[C@]2(C(=O)O)CC[C@]3(C)C(=CC[C@@H]4[C@@]5(C)CC[C@H](O)C(C)(C)[C@@H]5CC[C@]43C)[C@@H]2C1 [Oleanolic Acid, Oleanolic acid]
[1]; 10^-6 M, Table 3
  mean TGase/DNA × 10^5 ± s.d: 20.95 ± 1.95 × 10^5
  activity at 1 µM: 93%
[1]; [4]
  effect on keratinocyte TG1 level / differentiation (in words): only a very slight inhibitory effect on the keratinocyte TG1 level

## CC1=C(/C=C/C(C)=C/C=C/C(C)=C/C(=O)O)C(C)(C)CCC1 [RA, Retinoic acid, reference compound]
[2]
  effect on keratinocyte differentiation / transglutaminase level (in words): decreased keratinocyte differentiation; also recorded: dose dependent
[1]; 2.5 × 10^-7 M, Table 3
  mean TGase/DNA × 10^5 ± s.d: 9.95 ± 2.74 × 10^5
[1]; 2.5 × 10^-9 M, Table 2
  mean TGase/DNA × 10^5 ± s.d: 4.04 ± 1.23 × 10^5
[1]; [3]
  effect on keratinocyte TG1 level / differentiation (in words): very effective at repressing keratinocyte TG1 levels
[1]; [4]
  effect on keratinocyte TG1 level / differentiation (in words): very effective at repressing keratinocyte TG1 levels
[1]; 2.5 × 10^-7 M
  activity at 0.25 µM: 44%
[1]; 2.5 × 10^-9 M
  activity at 0.0025 µM: 33%
[1]
  effect on keratinocyte differentiation / transglutaminase I levels (in words, summary): decreased transglutaminase I levels
Skin keratinocytes
  effect on thymidine incorporation / keratinocyte proliferation (in words): increased thymidine incorporation

## CC1=C(/C=C/C(C)=C/C=C/C(C)=C/CO)C(C)(C)CCC1 [ROH, Retinol]
[2]
  effect on keratinocyte differentiation / transglutaminase level (in words): dose dependent
[1]; 2.5 × 10^-7 M, Table 3
  mean TGase/DNA × 10^5 ± s.d: 18.27 ± 3.30 × 10^5
[1]; 2.5 × 10^-9 M, Table 2
  mean TGase/DNA × 10^5 ± s.d: 8.29 ± 2.11 × 10^5
[1]; [3]
  effect on keratinocyte TG1 level / differentiation (in words): less effective than retinoic acid
[1]; [4]
  effect on keratinocyte TG1 level / differentiation (in words): less effective than retinoic acid
[1]; 2.5 × 10^-7 M
  activity at 0.25 µM: 81%
[1]; 2.5 × 10^-9 M
  activity at 0.0025 µM: 68%
[1]
  effect on keratinocyte differentiation / transglutaminase I levels (in words, summary): significantly less effective than retinoic acid at inhibiting keratinocyte differentiation
